Reference: patent publication US20220152144A1, “FOOD ADDITIVE INCLUDING MANNAN OLIGOSACCHARIDES TO ENHANCE ANIMAL PERFORMANCE AND METHOD OF USING THE SAME” (Vitech Bio-Chem Corporation, priority 2020, published 2022)

Assays:
[1] = system: Lactobacilli; assay: Bacterial counts in cecal samples of broiler chicks: Lactobacilli; format: in vivo; conditions: 21 days, dose 45 ppm
Procedure: (§1) The trial was conducted for 42 days. Body weight gain, feed intake, and FCR was measured at 14, 28, and 42 days. Cecal levels of E. coli, Salmonella, and lactobacillus were evaluated at 21 days.

[2] = system: E. coli; assay: Bacterial counts in cecal samples of broiler chicks: E. coli; format: in vivo; conditions: 21 days, dose 45 ppm
Procedure: as §1

[3] = Growth performance of broiler chicks fed supplemented diets (Example 1); format: in vivo, broiler chicks (Cobb500); conditions: dose 45 ppm
Procedure: Materials and Methods. Broiler chicks: A total of 960 1-day old broiler chicks (Name of breed: Cobb500™) (8 trt×6 rep×20 birds/pen) were randomly allocated to 8 treatment groups. Treatment groups: Treatment 1 was a corn/soybean meal diet (PC: 45 ppm avilamycin); Treatment 2 was a PC+50 g/T Fish hydrolysate+MOS (80:20 ratio); Treatment 3 was a PC+100 g/T Fish hydrolysate+MOS (80:20); and treatment 4 was PC+200 g/T Fish hydrolysate+MOS (80:20).
as §1
Measurements: Individual broiler weights and feed intake was collected in order to calculate body weight and body weight gain, feed intake, and gain-to-feed ratio by phase.
One-way ANOVA and Duncan's multiple range test was used to separate the means. There is no difference found between treatments. The overall mortality during the 42 days period is 3.65% and it is non-treatment specific.

Question: Which results are given for COC[C@H]1O[C@@H](OC2OC[C@@H]3O[C@]4(O[C@H]3[C@H]2OC(=O)C(C)C)O[C@H](C)[C@@](O)(C(C)=O)[C@@H]2OCO[C@H]24)[C@@H](OC)[C@@H](O)[C@@H]1O[C@@H]1O[C@H](C)[C@H](OC)[C@H](O[C@H]2C[C@@]3(C)OC4(C[C@@H](O)[C@H](O[C@H]5C[C@@H](O)[C@H](OC(=O)c6c(C)c(Cl)c(O)c(Cl)c6OC)[C@@H](C)O5)[C@@H](C)O4)O[C@@H]3[C@@H](C)O2)[C@H]1O (stereo partly shown) [Avilamycin, avilamycin]?
Answer: Lactobacilli Counts [1]: 7.21 Log10 CFU/g; E. coli Counts [2]: 7.29a Log10 CFU/g; body weight (BW) ([3]; Day 0-14): 442 g; body weight gain (BWG) ([3]; Day 0-14): 402 g; feed intake (FI) ([3]; Day 0-14): 583 g; food conversion ratio (FCR) ([3]; Day 0-14): 1.453; body weight (BW) ([3]; Day 0-28): 1,550 g; body weight gain (BWG) ([3]; Day 0-28): 1,510 g; feed intake (FI) ([3]; Day 0-28): 2,212 g; food conversion ratio (FCR) ([3]; Day 0-28): 1.472; body weight (BW) ([3]; Day 14-28): 1,550 g; body weight gain (BWG) ([3]; Day 14-28): 1,108 g; feed intake (FI) ([3]; Day 14-28): 1,628 g; food conversion ratio (FCR) ([3]; Day 14-28): 1.542; body weight (BW) ([3]; d 28-42): 2,784 g; body weight gain (BWG) ([3]; d 28-42): 1,235 g; feed intake (FI) ([3]; d 28-42): 2,601 g; food conversion ratio (FCR) ([3]; d 28-42): 2.123; body weight (BW) ([3]; overall 0-42 days): 2,784 g; body weight gain (BWG) ([3]; overall 0-42 days): 2,745 g; feed intake (FI) ([3]; overall 0-42 days): 4,813 g; food conversion ratio (FCR) ([3]; overall 0-42 days): 1.753
